Values quoted from earlier work, collected in patent US20110287097A1, “PHARMACEUTICAL COMPOSITIONS COMPRISING ROPINIROLE” (DR. REDDY'S LABORATORIES, INC., priority 2007, published 2011).

In the case of `CCCN(CCC)CCc1cccc2c1CC(=O)N2` [Ropinirole, 4-[2-(dipropylamino)ethyl]-1,3-dihydro-2H-indol-2-one], the “time to peak plasma concentration” value (after administration of an immediate release tablet) is listed as 1 to 2 h, the absolute systemic bioavailability (in vivo) is listed as 55% and the “mean plasma elimination half-life” value (in vivo) is listed as “approximately 6 hours”.
